# Source: patent US20090305994A1, “Compounds Modulating Vegf Receptor and Uses Thereof” (priority 2005, published 2009)
# No end group written: not given here.
# Key:
# VEGF receptors = VEGF receptors binding assay ([125I]-VEGF competition on BAEC membranes); parameters: species or system bovine
# Experimental: VEGF receptors binding and activation. a) VEGF competitive binding on BAEC. 1 μg of membrane protein was plated with QK and [^125I]-VEGF (500000 cpm, 10^−10 M). b) KDR activation. After stimulation total KDR was immunoprecipitated from a whole-cell protein extracts and phospho-tyrosine was visualized by a specific antibody, anti-rabbit HRP-conjugated secondary antibody and standard chemiluminescence. c) Flt-1 activation. After stimulation total Flt-1 was immunoprecipitated from a whole-cell protein extracts and phospho-tyrosine was visualized by specific antibody, anti-rabbit HRP-conjugated secondary antibody and standard chemiluminescence.
# VEGF receptors binding assay. Cells were homogenized in lysis buffer (12.5 mM Tris pH 6.8, 5 mM EDTA, 5 mM EGTA) and membranes were separated from the cytosol fraction by centrifugation. Membranes were suspended in binding buffer (75 mM Tris, 12.5 mM MgCl2, 2 mM EDTA) and an equal amount of membrane protein (1 μg) was plated in 96 well plates with QK (10^−13 to 10^−8 M) and [^125I]-VEGF (Amersham). VEGF binding was evaluated with a y-counter.
# VEGF receptors binding assay. To verify the biological behavior of QK peptide, we tested its ability to compete for the binding sites of VEGF on cell membranes (FIG. 1a). We competed membranes, obtained from isolated BAEC, with iodinated VEGF and then with increasing amount of QK.
# ERK1/2 = ERK1/2 activation in BAEC (western blot); type: cell-based, bovine; conditions: serum deprived BAEC, 15 minutes at 37° C.
# Experimental: Effect of QK and VEGF15 on ERK1/2 activation. Serum deprived BAEC were treated with QK (a) or with VEGF 15 (b) in absence or in presence of VEGF165 (100 ng/ml) for 15 minutes at 37° C. and then dissolved in RIPA-SDS buffer. Total ERK1/2 and the phosphorylated form of ERK1/2 were visualized by specific antibodies.
# Western blot. Cells were plated on six-well dishes and serum starved overnight. On the next day, cells were treated with different amount of peptide in absence or in presence of VEGF165 for 15 minutes at 37° C. and then dissolved in RIPA-SDS buffer (50 mM Tris-HCl (pH 7.5), 150 mM NaCl, 1% NP-40, 0.25% deoxycholate, 9.4 mg/50 ml sodium orthovanadate, […]). In some experiments, total KDR and Flt-1 were immunoprecipitated from an equal amount of whole-cell protein extracts using protein A/G agarose beads conjugated with antibodies raised against total KDR or Flt-1 (R&D). Proteins from whole-cell extracts or immunocomplexes were resolved by PAGE and transferred to nitrocellulose. Total extracellular signal-regulated kinase 1 and 2 (ERK1/2), serine-tyrosin phosphorylated ERK1/2, phospho-tyrosine (Cell signaling) and phospho-RB (p-RB) (Santacruz) were visualized by specific antibodies, anti-rabbit HRP-conjugated secondary antibody (Santacruz) and standard chemiluminescence (Pierce).
# Activation of the proliferative intracellular pathways. We then explored whether QK is able to start the pathways of endothelial cell activation. It is well established that angiogenesis modulate by VEGF is largely ERK1/2 dependent, leading to DNA synthesis and cell proliferation (7). Accordingly, we assessed the effects of QK on this kinase. […] To verify whether ERK1/2 activation to QK results in cell proliferation, we studied cell proliferation indicators such as cell number, DNA synthesis and cyclin activation.
# WKY rats = assay: Ischemic hindlimb model, digital angiographies and blood flow determination; type: in vivo, rat; conditions: 14 days
sequence,measurement,setting,value
"KVKFMDVYQRSYCHP (KVKFMDVYQRSYCHP-NH2) [VEGF15, natural peptide reproducing the VEGF helix 17-25, used as control peptide]",binding to the VEGF receptor,VEGF receptors,does not bind to the receptor
same,ERK1/2 activation,ERK1/2,had no effect on ERK activation
same,BEADS Ischemic to non ischemic,"WKY rats; dyed beads dilution, muscle ratio, infusion 10^-7 M",0.59 ± 0.15
same,ANGIOGRAPHY Number of TFC,"WKY rats; ischemic hindlimb, chronic intrafemoral artery infusion 10^-7 M",38 ± 2
